Measured values as given in PubChem BioAssay (NCI).
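Five concentrations, 48 hours, 96-well plates. Abbreviation: GI50, concentration required for 50% inhibition of growth. The concentration for full growth arrest is given as TGI.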

Experiments:
Test in all cases: DTP human tumour cell line panel, 48 h
[1] = tested on: RXF-631 renal
[2] = tested on: KM12 colon
[3] = tested on: PC-3 prostate
[4] = tested on: RXF 393 renal
[5] = tested on: A498 renal
[6] = tested on: T-47D breast
[7] = tested on: MCF7 breast
[8] = tested on: CCRF-CEM leukemia
[9] = tested on: UACC-257 melanoma
[10] = tested on: SNB-19 CNS
[11] = tested on: NCI-H460 lung
[12] = tested on: SNB-78 CNS
[13] = tested on: NCI/ADR-RES ovarian
[14] = tested on: CAKI-1 renal
[15] = tested on: HCT-116 colon
[16] = tested on: LOX IMVI melanoma
[17] = tested on: HT29 colon
[18] = tested on: LXFL 529 NSCLC
[19] = tested on: A549 NSCLC
[20] = tested on: 786-0 renal
[21] = tested on: UO-31 renal
[22] = tested on: MDA-N
[23] = tested on: SNB-75 CNS
[24] = tested on: DU-145 prostate
[25] = tested on: RPMI-8226 leukemia
[26] = tested on: OVCAR-8 ovarian
[27] = tested on: SF-539 CNS
[28] = tested on: SR leukemia
[29] = tested on: NCI-H226 lung
[30] = tested on: HOP-62 NSCLC
[31] = tested on: DLD-1 colon
[32] = tested on: U251 CNS
[33] = tested on: HS 578T breast
[34] = tested on: UACC-62 melanoma

Structure (SMILES): CC(=O)/C(C)=N/NC(=O)c1ccccc1O
- TGI [1]: > 10 µM
- GI50 [2]: > 100 µM
- TGI [2]: > 100 µM
- TGI [3]: > 100 µM
- GI50 [4]: > 100 µM
- TGI [4]: > 100 µM
- GI50 [5]: > 10 µM
- TGI [5]: > 100 µM
- TGI [6]: > 100 µM
- TGI [7]: > 100 µM
- TGI [8]: > 100 µM
- GI50 [9]: > 100 µM
- TGI [9]: > 100 µM
- GI50 [10]: > 100 µM
- TGI [10]: > 100 µM
- GI50 [11]: > 100 µM
- TGI [11]: > 100 µM
- TGI [12]: > 10 µM
- TGI [13]: > 100 µM
- GI50 [14]: > 100 µM
- TGI [14]: > 100 µM
- GI50 [15]: > 100 µM
- TGI [15]: > 100 µM
- GI50 [16]: > 100 µM
- TGI [16]: > 100 µM
- GI50 [17]: > 100 µM
- TGI [17]: > 100 µM
- TGI [18]: > 10 µM
- GI50 [19]: > 100 µM
- TGI [19]: > 100 µM
- GI50 [20]: > 100 µM
- TGI [20]: > 100 µM
- TGI [21]: > 10 µM
- TGI [22]: > 100 µM
- GI50 [23]: > 100 µM
- TGI [23]: > 100 µM
- TGI [24]: > 100 µM
- GI50 [25]: > 100 µM
- TGI [25]: > 100 µM
- GI50 [26]: > 100 µM
- TGI [26]: > 100 µM
- TGI [27]: > 10 µM
- TGI [28]: > 100 µM
- GI50 [29]: > 100 µM
- TGI [29]: > 100 µM
- GI50 [30]: > 100 µM
- TGI [30]: > 100 µM
- TGI [31]: > 10 µM
- GI50 [32]: > 100 µM
- TGI [32]: > 100 µM
- TGI [33]: > 100 µM
- GI50 [34]: > 10 µM
- TGI [34]: > 100 µM
